Patent US6660870B1, “2-acylaminobenzimidazole derivatives for treating glaucoma” (Alcon, Inc., priority 2000, dated 2003)

How the values were obtained:
brain 5-HT2 receptors = brain 5-HT2 receptors (Rattus norvegicus, UniProt P14842); experiment: 5-HT2 Receptor Binding Assay ([125I]DOI competition); conditions: competition for [125I]DOI binding, post mortem rat or human cerebral cortex homogenates
Description: 5-HT2 Receptor Binding Assay
Aliquots of post mortem rat or human cerebral cortex homogenates (400 μl) dispersed in 50 mM TrisHCl buffer (pH 7.4) are incubated with [^125I]DOI (80 pM final) in the absence or presence of methiothepin (10 μM final) to define total and non-specific binding, respectively, in a total volume of 0.5 ml. The assay mixture is incubated for 1 hour at 23° C. in polypropylene tubes and the assays terminated by rapid vacuum filtration over Whatman GF/B glass fiber filters previously soaked in 0.3% polyethyleneimine using ice-cold buffer. Test compounds (at different concentrations) are substituted for methiothepin. Filter-bound radioactivity is determined by scintillation spectrometry on a beta counter. The data are analyzed using a non-linear. iterative curve-fitting computer program [Trends Pharmacol. Sci., 16, 413 (1995)] to determine the compound affinity parameter. The concentration of the compound needed to inhibit the [^125I]DOI binding by 50% of the maximum is termed the IC50 […].

5-HT2 receptor = target: T1, 5-HT2 receptor (Rattus norvegicus, UniProt P14842); experiment: 5-HT2 Functional Assay: Phosphoinositide (PI) Turnover Assay; type: cell-based; conditions: for EC50: [3H]inositol phosphate production in A7r5 rat vascular smooth muscle cells
T1 construct: A7r5 rat vascular smooth muscle cells; endogenous in cells; host or cells: A7r5 rat vascular smooth muscle cells
T1 sequence (P14842 whole entry): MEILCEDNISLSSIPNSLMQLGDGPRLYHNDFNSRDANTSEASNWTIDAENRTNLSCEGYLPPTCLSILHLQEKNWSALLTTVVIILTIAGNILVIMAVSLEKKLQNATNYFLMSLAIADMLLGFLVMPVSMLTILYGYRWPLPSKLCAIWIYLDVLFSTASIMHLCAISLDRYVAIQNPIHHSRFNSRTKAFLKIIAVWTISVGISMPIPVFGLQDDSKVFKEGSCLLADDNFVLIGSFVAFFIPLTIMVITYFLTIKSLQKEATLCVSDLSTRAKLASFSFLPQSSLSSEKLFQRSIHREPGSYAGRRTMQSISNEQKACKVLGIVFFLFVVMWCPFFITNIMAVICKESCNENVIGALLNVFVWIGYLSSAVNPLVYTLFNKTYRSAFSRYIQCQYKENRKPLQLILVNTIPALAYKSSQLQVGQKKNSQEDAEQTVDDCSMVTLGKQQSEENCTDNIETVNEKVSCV
Description: 5-HT2 Functional Assay: Phosphoinositide (PI) Turnover Assay
The relative agonist activity of serotonergic compounds at the 5-HT2 receptor can be determined in vitro using the ability of the compounds to stimulate the production of [^3H]inositol phosphates in [^3H]myo-inositol-labeled A7r5 rat vascular smooth muscle cells by their ability to activate the enzyme phospholipase C. These cells are grown in culture plates, maintained in a humidified atmosphere of 5% CO2 and 95% air and fed semi-weekly with Dulbecco's modified Eagle medium (DMEM) containing 4.5 g/l glucose and supplemented with 2 mM glutamine, 10 μg/ml gentamicin, and 10% fetal bovine serum. For the purpose of conducting the phosphoinositide (PI) turnover experiments, the A7r5 cells are cultured in 24-well plates as previously [J. Pharmacol. Expt. Ther., 286, 411 (1998)]. Confluent cells are exposed for 24-30 hrs to 1.5 μCi [^3H]-myo-inositol (18.3 Ci/mmol) in 0.5 ml of serum-free medium. Cells are then rinsed once with DMEM/F-12 containing 10 mM LiCl prior to incubation with the test agent (or solvent as the control) in 1.0 ml of the same medium for 1 hr at 37° C., after which the medium is aspirated and 1 ml of cold 0.1 M formic acid added to stop the reaction. The chromatographic separation of [^3H]-inositol phosphates ([^3H]-IPs) on an AG-1-X8 column is performed as previously described [J. Pharmacol. Expt. […] The eluate (4 ml) is collected, mixed with 15 ml scintillation fluid, and the total [^3H]-IPs determined by scintillation counting on a beta-counter. Concentration-response data are analyzed by the sigmoidal fit function of the Origin Scientific Graphics software (Microcal Software, Northampton, Mass.) to determine agonist potency (EC50 value) and efficacy (Emax). Serotonin (5-HT) is used as a positive control (standard) agonist compound and the efficacy of test compounds is compared to that of 5-HT (set at 100%).

brain 5-HT2 receptors, sequence (P14842 whole entry): as above

Compound | IC50 (brain 5-HT2 receptors) [nM] | EC50 (5-HT2 receptor) [nM] | Emax (5-HT2 receptor; A7R5, read-out: Efficacy (Emax, %)) [%]
COc1cc(C[C@@H](C)N)c(OC)cc1I [(R)-DOI] | 0.46 | 277 | –
Cc1ccc(C(=O)Nc2nc3ccccc3n2CCN(C)C)cc1 [Example 1, 1-(N,N-Dimethylaminoethyl)-2-(4-methylbenzamido)benzimidazole] | – | 404 | 35
